Source: patent US8993591B2, “1,2,4-triazolo[4,3-a] pyridine derivatives and their use as positive allosteric modulators of MGLUR2 receptors” (Janssen Pharmaceuticals, Inc., priority 2010, dated 2015)
Where a name gives a salt, the structure may show the parent alone.

Biological target: T1, human mGluR2 receptor (Homo sapiens, UniProt Q14416)
T1 construct: expressed in transfected cells; host or cells: CHO cells (membranes)
Assay: [35S]GTPγS binding assay, mGluR2 positive allosteric modulation (PAM)
Format: biochemical
Conditions: membranes from CHO cells transfected with human mGluR2, in presence of glutamate at EC20; for Emax / GTPγS - hmGluR2 PAM Emax: maximal % effect relative to the control glutamate response; for Emax: read-out: GTPγS - hmGluR2 PAM Emax; for EC50: -log EC50 with EC50 in M, read-out: GTPγS - hmGluR2 PAM pEC50 (converted)
Procedure: The [^35S]GTPγS binding assay is a functional membrane-based assay used to study G-protein coupled receptor (GPCR) function whereby incorporation of a non-hydrolysable form of GTP, [^35S]GTPγS (guanosine 5′-triphosphate, labelled with […] ^35S), is measured. The G-protein α subunit catalyzes the exchange of guanosine 5′-diphosphate (GDP) by guanosine triphosphate (GTP) and on activation of the GPCR by an agonist, [^35S]GTPγS, becomes incorporated and cannot be cleaved to continue the exchange cycle (Harper (1998) Current Protocols in Pharmacology 2.6.1-10, John Wiley & Sons, Inc.). […] Here we describe the use of the [^35S]GTPγS binding assay using membranes from cells transfected with the human mGluR2 receptor and adapted from Schaffhauser et al. ((2003) Molecular Pharmacology 4:798-810) for the detection of the positive allosteric modulation (PAM) properties of the compounds of this invention.
CHO-cells were cultured to pre-confluence and stimulated with 5 mM butyrate for 24 h. Cells were then collected by scraping in PBS and cell suspension was centrifuged (10 min at 4000 RPM in benchtop centrifuge). Supernatant was discarded and pellet gently resuspended in 50 mM Tris-HCl, pH 7.4 by mixing with a vortex and pipetting up and down. The suspension was centrifuged at 16,000 RPM (Sorvall RC-5C plus rotor SS-34) for 10 minutes and the supernatant discarded. The pellet was homogenized in 5 mM Tris-HCl, pH 7.4 using an ultra-turrax homogenizer and centrifuged again (18,000 RPM, 20 min, 4° C.). The final pellet was resuspended in 50 mM Tris-HCl, pH 7.4 and stored at −80° C. in appropriate aliquots before use. Protein concentration was determined by the Bradford method (Bio-Rad, USA) with bovine serum albumin as standard.
Measurement of mGluR2 positive allosteric modulatory activity of test compounds was performed as follows. Test compounds and glutamate were diluted in assay buffer containing 10 mM HEPES acid, 10 mM HEPES salt, pH 7.4, 100 mM NaCl, 3 mM MgCl2 and 10 μM GDP. Human mGlu2 receptor-containing membranes were thawed on ice and diluted in assay buffer supplemented with 14 μg/ml saponin. Membranes were pre-incubated with compound alone or together with a predefined (˜EC20) concentration of glutamate (PAM assay) for 30 min at 30° C. After addition of [^35S]GTPγS (f.c. 0.1 nM), assay mixtures were shaken briefly and further incubated to allow [^35S]GTPγS incorporation on activation (30 minutes, 30° C.). Final assay mixtures contained 7 μg of membrane protein in 10 mM HEPES acid, 10 mM HEPES salt, pH 7.4, 100 mM NaCl, 3 mM MgCl2, 10 μM GDP and 10 μg/ml saponin. Total reaction volume was 200 μl. Reactions were terminated by rapid filtration through Unifilter-96 GF/B plates (Perkin Elmer, Mass., USA) using a 96-well filtermate universal harvester. Filters were washed 6 times with ice-cold 10 mM NaH2PO4/10 mM Na2HPO4, pH 7.4. Filters were then air-dried, and 40 μl of liquid scintillation cocktail (Microscint-O) was added to each well. Membrane-bound radioactivity was counted in a Microplate Scintillation and Luminescence Counter from Perkin Elmer.
The concentration-response curves of representative compounds of the present invention-obtained in the presence of EC20 of mGluR2 agonist glutamate to determine positive allosteric modulation (PAM)-were generated using the Lexis software interface (developed at J&J).

T1 sequence (Q14416 19-872): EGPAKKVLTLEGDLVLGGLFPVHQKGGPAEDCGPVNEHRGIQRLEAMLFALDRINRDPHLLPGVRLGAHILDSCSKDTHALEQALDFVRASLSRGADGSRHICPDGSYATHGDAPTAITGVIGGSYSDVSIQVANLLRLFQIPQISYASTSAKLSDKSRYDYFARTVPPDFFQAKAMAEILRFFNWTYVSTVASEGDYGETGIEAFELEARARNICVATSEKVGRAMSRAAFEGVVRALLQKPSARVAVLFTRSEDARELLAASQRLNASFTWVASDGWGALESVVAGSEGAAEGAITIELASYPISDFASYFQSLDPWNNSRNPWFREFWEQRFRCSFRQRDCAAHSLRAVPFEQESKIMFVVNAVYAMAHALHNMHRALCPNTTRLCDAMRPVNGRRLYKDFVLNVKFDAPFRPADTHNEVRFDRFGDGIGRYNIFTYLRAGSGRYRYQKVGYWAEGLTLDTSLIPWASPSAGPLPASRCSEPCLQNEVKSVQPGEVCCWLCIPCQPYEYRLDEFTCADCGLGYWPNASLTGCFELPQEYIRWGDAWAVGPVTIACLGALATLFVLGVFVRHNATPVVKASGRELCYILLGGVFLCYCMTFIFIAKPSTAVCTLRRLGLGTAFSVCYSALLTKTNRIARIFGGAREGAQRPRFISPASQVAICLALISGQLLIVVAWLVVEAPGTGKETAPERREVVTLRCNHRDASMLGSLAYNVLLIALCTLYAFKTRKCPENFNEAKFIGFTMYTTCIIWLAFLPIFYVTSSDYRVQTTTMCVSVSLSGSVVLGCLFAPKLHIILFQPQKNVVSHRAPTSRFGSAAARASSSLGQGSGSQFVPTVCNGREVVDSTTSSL

SMILES	Emax	EC50	GTPγS - hmGluR2 PAM Emax
CN1CCN(Cc2ccn3c(CC4CC4)nnc3c2C(F)(F)F)CC1c1ccccc1 (single isomer, unassigned) [Compound 7a, 3-(Cyclopropylmethyl)-7-[(4-methyl-3-phenyl-1-piperazinyl)methyl]-8-(trifluoromethyl)-1,2,4-triazolo[4,3-a]pyridine (*R)]	199%		
Fc1ccc(C2CN(Cc3ccn4c(CC5CC5)nnc4c3C(F)(F)F)CCO2)c(F)c1 (single isomer, unassigned) [Compound 17, 3-(Cyclopropylmethyl)-7-{[(2*R)-2-(2,4-difluorophenyl)morpholin-4-yl]methyl}-8-(trifluoromethyl)[1,2,4]triazolo[4,3-a]pyridine]	259%	977 nM	
CN1CCN(Cc2ccn3c(CC4CC4)nnc3c2C(F)(F)F)CC1c1ccccc1 (single isomer, unassigned) [Compound 7b, 3-(cyclopropylmethyl)-7-[(4-methyl-3-phenyl-1-piperazinyl)methyl]-8-(trifluoromethyl)-1,2,4-triazolo[4,3-a]pyridine (*S)]	198%	263 nM	
Fc1ccccc1C1CN(Cc2ccn3c(CC4CC4)nnc3c2C(F)(F)F)CCN1 (single isomer, unassigned) [Compound 6b, 3-(cyclopropylmethyl)-7-[[3-(2-fluorophenyl)-1-piperazinyl]methyl]-8-(trifluoromethyl)-1,2,4-triazolo[4,3-a]pyridine (*S)]		631 nM	294%
CC1(c2ccccc2)CN(Cc2ccn3c(CC4CC4)nnc3c2C(F)(F)F)CCN1 (single isomer, unassigned) [Compound 3b, 3-(cyclopropylmethyl)-7-[(3-methyl-3-phenyl-1-piperazinyl)methyl]-8-(trifluoromethyl)-1,2,4-triazolo[4,3-a]pyridine (*S) hydrochloride hydrate (.2.4HCl.2.7H2O)]	292%	37.2 nM	
CC1(c2ccccc2)CCN(Cc2ccn3c(CC4CC4)nnc3c2C(F)(F)F)C1 (single isomer, unassigned) [Compound 13, 3-(cyclopropylmethyl)-7-[(3-methyl-3-phenyl-1-pyrrolidinyl)methyl]-8-(trifluoromethyl)-1,2,4-triazolo[4,3-a]pyridine (*R)]		12.6 nM	248%
Cc1nnc2c(C(F)(F)F)c(CN3CCCC(C)(c4ccccc4)C3)ccn12 (single isomer, unassigned) [Compound 11, 3-Methyl-7-[(3-methyl-3-phenyl-1-piperidinyl)methyl]-8-(trifluoromethyl)-1,2,4-triazolo[4,3-a]pyridine (*R)]	268%	53.7 nM	
Fc1ccc(N2CCN(Cc3ccn4c(CC5CC5)nnc4c3C(F)(F)F)C3CC32)c(F)c1 (racemic) [Compound 12, 2-[[3-(Cyclopropylmethyl)-8-(trifluoromethyl)-1,2,4-triazolo[4,3-a]pyridin-7-yl]methyl]-5-(2,4-difluorophenyl)-2,5-diazabicyclo[4.1.0]heptane (cis)]	277%	12.6 nM	
Cc1nnc2c(C(F)(F)F)c(CN3CCCC(C)(c4ccccc4)C3)ccn12 (single isomer, unassigned) [Compound 10, 3-Methyl-7-[(3-methyl-3-phenyl-1-piperidinyl)methyl]-8-(trifluoromethyl)-1,2,4-triazolo[4,3-a]pyridine (*S)]	193%		
Fc1ccc(C2CN(Cc3ccn4c(CC5CC5)nnc4c3C(F)(F)F)CCN2)c(F)c1 (single isomer, unassigned) [Compound 19a, 3-(Cyclopropylmethyl)-7-{[(3*R)-3-(2,4-difluorophenyl)piperazin-1-yl]methyl}-8-(trifluoromethyl)[1,2,4]triazolo[4,3-a]pyridine]		912 nM	320%
CC1(c2ccccc2)CCN(Cc2ccn3c(CC4CC4)nnc3c2C(F)(F)F)C1 (single isomer, unassigned) [Compound 14, 3-(cyclopropylmethyl)-7-[(3-methyl-3-phenyl-1-pyrrolidinyl)methyl]-8-(trifluoromethyl)-1,2,4-triazolo[4,3-a]pyridine (*S)]		15.1 nM	286%
FC(F)(F)c1c(CN2CCNC(c3ccccc3)C2)ccn2c(CC3CC3)nnc12 (single isomer, unassigned) [Compound 5b, 3-(cyclopropylmethyl)-7-[(3-phenyl-1-piperazinyl)methyl]-8-(trifluoromethyl)-1,2,4-triazolo[4,3-a]pyridine (*S)]		955 nM	278%
FC(F)(F)c1c(CN2CCNC(c3ccccc3)C2)ccn2c(CC3CC3)nnc12 (single isomer, unassigned) [Compound 5a, 3-(Cyclopropylmethyl)-7-[(3-phenyl-1-piperazinyl)methyl]-8-(trifluoromethyl)-1,2,4-triazolo[4,3-a]pyridine(*R)]	270%	2240 nM	
Fc1ccc(C2CN(Cc3ccn4c(CC5CC5)nnc4c3C(F)(F)F)CCN2)c(F)c1 (single isomer, unassigned) [Compound 19b, 3-(Cyclopropylmethyl)-7-{[(3*S)-3-(2,4-difluorophenyl)piperazin-1-yl]methyl}-8-(trifluoromethyl)[1,2,4]triazolo[4,3-a]pyridine]		468 nM	279%
Fc1ccccc1C1CN(Cc2ccn3c(CC4CC4)nnc3c2C(F)(F)F)CCN1 (single isomer, unassigned) [Compound 6a, 3-(cyclopropylmethyl)-7-[[3-(2-fluorophenyl)-1-piperazinyl]methyl]-8-(trifluoromethyl)-1,2,4-triazolo[4,3-a]pyridine (*R)]		447 nM	208%
Fc1ccc(C2CN(Cc3ccn4c(CC5CC5)nnc4c3C(F)(F)F)CCO2)c(F)c1 (single isomer, unassigned) [Compound 18, 3-(Cyclopropylmethyl)-7-{[(2*S)-2-(2,4-difluorophenyl)morpholin-4-yl]methyl}-8-(trifluoromethyl)[1,2,4]triazolo[4,3-a]pyridine]		51.3 nM	242%
CC1(c2ccccc2)CN(Cc2ccn3c(CC4CC4)nnc3c2C(F)(F)F)CCN1 (single isomer, unassigned) [Compound 3a, 3-(Cyclopropylmethyl)-7-[(3-methyl-3-phenyl-1-piperazinyl)methyl]-8-(trifluoromethyl)-1,2,4-triazolo[4,3-a]pyridine (*R) hydrochloride hydrate (.2HCl.2.5H2O)]	271%		
FC(F)(F)c1c(CN2CCO[C@H](c3ccccc3)C2)ccn2c(CC3CC3)nnc12 [Compound 2, 3-(Cyclopropylmethyl)-7-[[(2R)-2-phenyl-4-morpholinyl]methyl]-8-(trifluoromethyl)-1,2,4-triazolo[4,3-a]pyridine]	267%	871 nM	
CC1(c2ccccc2)CN(Cc2ccn3c(CC4CC4)nnc3c2C(F)(F)F)CCO1 (single isomer, unassigned) [Compound 8a, 3-(Cyclopropylmethyl)-7-[(2-methyl-2-phenyl-4-morpholinyl)methyl]-8-(trifluoromethyl)-1,2,4-triazolo[4,3-a]pyridine (*R) hydrochloride hydrate (.1.1HCl.1.1H2O)]		676 nM	273%
